Here are results for three substances from patent US12491253B2, “Bicyclic peptide ligands specific for MT1-MMP” (BicycleRD Limited, priority 2018, dated 2025).

The target in the assay is MT1-MMP hemopexin domain (Homo sapiens, UniProt P50281). The note with it: Human MT1-MMP FP direct binding; fluoresceinated bicyclic peptide titrated with hemopexin domain; molecular scaffold TBMB. As for the experimental part: Direct Binding Fluorescence Polarisation or Anisotropy Assays are performed by titrating a constant concentration of fluorescent tracer (here, the fluoresceinated bicyclic peptide to be studied) with its binding partner (here, the MT1-MMP hemopexin domain). As the concentration of binding partner increases during the titration, the polarisation signal changes in proportion to the fraction of bound and unbound material. This allows determination of […] (Kd) quantitatively. Assay data can be fit using standard ligand binding equations.
The titrant (binding partner) concentration is varied from 0.1 nM up to typically 5 μM. The range is chosen such that the maximum change in fluorescent polarisation can be observed. Buffers employed are phosphate buffered saline in the presence of 0.01% Tween. Experiments were run in black 384 well low-bind/low volume plates (Corning 3820), and the fluorescent polarisation signal was measured using a BMG Pherastar FS plate reader. […] Fluoresceination may be performed on the N-terminal amino group of the peptide, which is separated from the bicycle core sequence by a sarcosine spacer (usually Sar5). This can be done during Fmoc solid phase synthesis or post-synthetically (after cyclisation with TBMB and purification) if the N-terminal amino group is unique to the peptide. Fluoresceination can also be performed on the C-terminus, usually on a Lysine introduced as the first C-terminal residue, which is then separated from the bicycle core sequence by a sarcosine spacer (usually Sar6). Thus, N-terminal tracers can have a molecular format described as Fluo-Gly-Sar6-A (BicycleCoreSequence), and (BicycleCoreSequence)-A-Sar6-K(Fluo) for a C-terminally fluoresceinated construct.
Fluorescent tracers used in the Examples include BCY1323-Sar6-K(FI), BCY1326-Sar6-K(FI), BCY3418-Sar6-K(FI), BCY3422-K(FI), and BCY1329-Sar6-K(FI).
“fluoresceinated bicyclic peptide tracer on TBMB, used as BCY1323-Sar6-K(FI); sequence not given”: the Kd (as a rule, the free concentration of one partner at which half of the binding sites on the other are occupied at equilibrium, for simple one-to-one binding) was 0.0359 ± 0.00665 µM.
Next, “fluoresceinated bicyclic peptide tracer on TBMB, used as BCY1329-Sar6-K(FI); sequence not given”: 0.0221 ± 0.011 µM.
Next, “fluoresceinated bicyclic peptide tracer on TBMB, used as BCY1326-Sar6-K(FI); sequence not given”: 0.218 µM.
